Measured values as given in paper PMC12467382, “Synthesis and Bioevaluation of Chalcones as Broad-Spectrum Antiviral Compounds Against Single-Stranded RNA Viruses” (Biomolecules, 2025).

Legend:
ZIKV = ZIKV envelope (E) protein expression in Hs27 cells by flow cytometry; assay type: cell-based, Zika Virus; details: MOI 5, 24 hpi; for Cells expressing ZIKV envelope (E) protein: 10 µM before and after infection, DMSO 15%
Method: The MR766 strain of Zika Virus (ZIKV) (ATCC-VR84, Manassas, VA, USA) was grown and titered at 37 °C using Vero cells as previously described. Infections were carried out in DMEM containing 10% BSA for 1 h. Cells were then washed with PBS and cultured in DMEM containing 10% HI FBS.
For cytotoxicity assays, cells were stained with propidium iodide (PI) at a dilution of 1:100. Cell viability was determined via flow cytometry using the CytoFLEX (Beckman Coulter, Brea, CA, USA). CytExpert software (Beckman Coulter, version 2.4) was used to analyze independent events. PIV5 infection was monitored using flow cytometry via the FITC channel by analyzing GFP expression of individual cells. ZIKV infection was monitored utilizing Flavivirus group antigen–antibody (D1-4G2-4-15; Novus Biologicals, Littleton, CO, USA) staining for the ZIKV envelope protein. Cells were fixed and permeabilized using eBioscience Intracellular Fixation and Permeabilization Buffer (Invitrogen, Thermo Fisher Scientific, MA, USA) according to the manufacturer’s instructions. Secondary staining was performed using an anti-Alexa Fluor 488 (AF488) antibody (Invitrogen, Thermo Fisher Scientific, MA, USA). OC43 infection was monitored utilizing a primary antibody targeted toward the OC43 nucleocapsid protein (NP, MAB9013, Sigma-Aldrich, St. Louis, MO, USA). Secondary staining was performed using an AF488 antibody. Cells were fixed and permeabilized as previously described. LACV infection was monitored utilizing an anti-LACV Gc 807.31ab antibody kindly provided by Andrew Pekosv. Secondary staining was performed using an AF488 antibody. Cells were fixed and permeabilized as previously described.
To expand these findings, we evaluated whether these top-performing chalcones inhibited the replication of other RNA viruses. Briefly described, Hs27 cells were left untreated, treated with DMSO as a control, or treated with the chalcones 8a, 8o, or 8p at 10 μM for 24 h. Cells were then infected with the Bunyavirus LACV, the Flavivirus ZIKV, or the Coronavirus OC43 at high MOIs, as listed in Figure 10. […]

OC43 = assay: Coronavirus OC43 NP protein expression in Hs27 cells by flow cytometry; assay type: cell-based, Human Coronavirus OC43; details: MOI 50, 24 hpi; for Cells expressing OC43 NP protein: 10 µM before and after infection, DMSO ~65%
Method: Human Coronavirus OC43 (ATCC, catalog number VR-1558) was grown in a human colorectal adenocarcinoma cell line (HCT-8; ATCC, Manassas, Virginia, catalog #CCL-244) at 33 °C as previously described. OC43 titers were determined at 33 °C via 50% Tissue Culture Infectious Dose assays (TCID50) on confluent human rhabdomyosarcoma (RD; ATCC, Manassas, Virginia, catalog # CCL-136) cells in 96-well plates as previously described. Infections were carried out in DMEM containing 10% BSA for 1 h at 33 °C. Cells were then washed with PBS, cultured in DMEM supplemented with 2% HI FBS, and incubated at 33 °C.
For cytotoxicity assays, cells were stained with propidium iodide (PI) at a dilution of 1:100. Cell viability was determined via flow cytometry using the CytoFLEX (Beckman Coulter, Brea, CA, USA). CytExpert software (Beckman Coulter, version 2.4) was used to analyze independent events. PIV5 infection was monitored using flow cytometry via the FITC channel by analyzing GFP expression of individual cells. ZIKV infection was monitored utilizing Flavivirus group antigen–antibody (D1-4G2-4-15; Novus Biologicals, Littleton, CO, USA) staining for the ZIKV envelope protein. Cells were fixed and permeabilized using eBioscience Intracellular Fixation and Permeabilization Buffer (Invitrogen, Thermo Fisher Scientific, MA, USA) according to the manufacturer’s instructions. Secondary staining was performed using an anti-Alexa Fluor 488 (AF488) antibody (Invitrogen, Thermo Fisher Scientific, MA, USA). OC43 infection was monitored utilizing a primary antibody targeted toward the OC43 nucleocapsid protein (NP, MAB9013, Sigma-Aldrich, St. Louis, MO, USA). Secondary staining was performed using an AF488 antibody. Cells were fixed and permeabilized as previously described. LACV infection was monitored utilizing an anti-LACV Gc 807.31ab antibody kindly provided by Andrew Pekosv. Secondary staining was performed using an AF488 antibody. […]
To expand these findings, we evaluated whether these top-performing chalcones inhibited the replication of other RNA viruses. […]

mTOR signaling = assay: Western blot of prps6 and rps6 as readouts of mTOR signaling in PANC-1 cells; assay type: cell-based; details: 72 h, chalcones 10 µM, rapamycin 10 nM
Method: PANC-1 cells were cultured in 6-well dishes and were lysed using modified radioimmunoprecipitation assay (RIPA) buffer (20 mM HEPES, pH 7.0, 150 mM NaCl, 1 mM EDTA, 1% NP-40, 1% deoxycholate, and 0.1% sodium dodecyl sulfate [SDS]) containing a complete protease inhibitor cocktail (Roche, Mannheim, Germany) and PhosSTOP phosphatase inhibitor cocktail (Roche, Mannheim, Germany). Protein concentrations were determined using the bicinchoninic acid (BCA) protein assay kit (Pierce, Rockford, IL, USA) according to manufacturer’s instructions. Cell lysates with 25 µg of protein were resolved on 12% sodium dodecyl sulfate-polyacrylamide gel electrophoresis (SDS-PAGE) gels and electro-transferred onto polyvinylidene difluoride (PVDF) membranes (Trans-Blot Turbo Transfer System, BioRad, Hercules, CA, USA). The samples were probed with rabbit monoclonal antibodies for the P-rps6 (1:1000) protein (Cell Signaling, Danvers, MA, USA) and mouse monoclonal antibodies for rps6 (1:1000) (Cell Signaling) and β-actin (1:5000) (Abcam, Waltham, MA, USA) proteins. Blots were visualized using anti-rabbit or anti-mouse horseradish peroxidase (HRP)-conjugated antibodies (Cell Signaling) and chemiluminescence reagent (Thermo Fisher Scientific, Waltham, MA, USA).
PANC-1 cells were chosen for this study as they are highly dependent on mTOR for their growth. PANC-1 cells were cultured and treated with the positive control rapamycin (10 nM) and chalcones NM5, 8a, 8o, 8s, 8v, and 8w (10 μM) for 72 h. Rapamycin and the chalcones were dissolved in 100% DMSO and dosed so that the final DMSO concentration was 0.1%. Cell lysates were collected and analyzed to determine the relative protein expression levels of rps6, prps6, and β-actin as a loading control (see Figure 12).

Vero cells = assay: Propidium iodide (PI) staining cytotoxicity in Vero cells by flow cytometry; assay type: cell-based; details: 24 h, concentration giving 10% PI+ cells
Method: We also extended the analysis of chalcone anti-viral effects to the widely used Vero cell line. […] The quotients of these values were determined to compare the compounds directly while accounting for both cytotoxicity and efficacy against PIV5.

PIV5-GFP = assay: RT-qPCR of PIV5 genes (F, HN, NP) in infected Hs27 cells; assay type: cell-based, parainfluenza virus 5; details: 10 µM before and after infection, MOI 10, normalized to actin
Method: Hs27 cells cultured in 6-well dishes were collected in TRIzol® (Invitrogen) followed by RNA extraction. To produce cDNA, 1 μg of total RNA was used with TaqMan® Reverse Transcription Reagents (Applied Biosystems, Foster City, CA, USA) as described in the manufacturer’s instructions. Quantitative real-time PCR was performed using Bio-Rad CFX Connect Real-Time (Bio-Rad, Hercules, CA, USA) and Fast SYBR® FAST Green Master Mix (Applied Biosystems, Foster City, CA, USA). Relative gene expression was determined using CFX Manager Software (Bio-Rad, version 2.3) and the following primers (Table 1).
To better understand how the chalcones were inhibiting virus growth, RT-qPCR was utilized to determine the effect of chalcone treatment on viral gene expression. Hs27 cells were treated with DMSO as a control or treated with 8o at a concentration of 10 µM. At 24 hpt, cells were mock infected or infected with PIV5-GFP at a high MOI and immediately replaced with media supplemented with 8o. Total RNA was collected at 2, 5, and 10 hpi and used in RT-qPCR assays to measure levels of the PIV5 genes: fusion (F) protein, hemagglutinin-neuraminidase (HN) protein, and nucleocapsid (NP) protein. Collection at various time points allows one to kinetically distinguish between the chalcone-mediated inhibition of early and late viral gene expression. Values were normalized to actin and were set relative to the DMSO-treated control of each corresponding time point.

Compound	prps6 expression relative to DMSO control (mTOR signaling)	total rps6 protein expression relative to DMSO control (mTOR signaling)	PI MTC (Vero cells)	further results
COc1ccccc1/C=C/C(=O)c1ccccc1O [Chalcone 8a]	no significant change	no significant difference	–	Inhibition of viral gene expression, ZIKV (ZIKV; 10 µM): did not inhibit viral gene expression; Effect on OC43 NP expression (OC43; 10 µM): significant inhibitory effects
COc1ccc(Br)cc1/C=C/C(=O)c1c(O)cccc1OC [Chalcone 8f]	–	–	6.8 µM	–
COc1ccc(Br)cc1/C=C/C(=O)c1c(O)cccc1OCc1ccccc1 [Chalcone 8l]	–	–	4.0 µM	–
CCOc1ccc(Br)cc1/C=C/C(=O)c1c(O)cccc1OCc1ccccc1 [Chalcone 8o]	no significant change	no significant difference	2.5 µM	Viral gene expression (F, HN, NP) vs DMSO-treated control at 2 hpi (PIV5-GFP): minimal differences; Reduction in viral gene expression at 5 hpi (PIV5-GFP; relative to DMSO): ~ 5 fold; Reduction in viral gene expression at 10 hpi (PIV5-GFP; relative to DMSO): greater than 100 fold; Cells expressing ZIKV envelope (E) protein (ZIKV): ~ 2%; Cells expressing OC43 NP protein (OC43): 1-2%
CCOc1ccc(Cl)cc1/C=C/C(=O)c1c(O)cccc1OCc1ccccc1 [Chalcone 8p]	–	–	3.2 µM	Cells expressing ZIKV envelope (E) protein (ZIKV): ~ 2%; Cells expressing OC43 NP protein (OC43): 1-2%
COc1ccc(Br)cc1/C=C/C(=O)c1c(O)cccc1OCCC(C)C [Chalcone 8s, (2E)-3-(5-Bromo-2-Methoxy-Phenyl)-1-[2-Hydroxy-6-(3-Methyl-Butoxy)-Phenyl]-Propenone]	no significant change	significantly increased	–	–
CCOc1ccc(Br)cc1/C=C/C(=O)c1c(O)cccc1OCc1ccc(-c2ccccc2)cc1 [Chalcone 8v, (2E)-1-[2-(Biphenyl-4-Ylmethoxy)-6-Hydroxy-Phenyl]3-(5-Bromo-2-Ethoxy-Phenyl)-Propenone]	no significant change	no significant difference	–	–
COc1ccc(Br)cc1/C=C/C(=O)c1c(O)cccc1OCc1ccc(-c2ccccc2)cc1 [Chalcone 8w, (2E)-1-[2-(Biphenyl-4-Ylmethoxy)-6-Hydroxy-Phenyl]3-(5-Bromo-2-Methoxy-Phenyl)-Propenone]	no significant change	no significant difference	–	–
